Results reported in ChEMBL document CHEMBL1649106, “Structures of 1-Deoxy-D-Xylulose-5-Phosphate Reductoisomerase/Lipophilic Phosphonate Complexes” (ACS Med Chem Lett, 2011).

Experiments:
Plasmodium falciparum = test: Antimalarial activity against Plasmodium falciparum; format: functional, organism-based
[1] = target: T1, 1-deoxy-D-xylulose 5-phosphate reductoisomerase (Escherichia coli K-12, UniProt P45568); test: Inhibition of Escherichia coli DXR
T1 sequence (P45568 whole entry): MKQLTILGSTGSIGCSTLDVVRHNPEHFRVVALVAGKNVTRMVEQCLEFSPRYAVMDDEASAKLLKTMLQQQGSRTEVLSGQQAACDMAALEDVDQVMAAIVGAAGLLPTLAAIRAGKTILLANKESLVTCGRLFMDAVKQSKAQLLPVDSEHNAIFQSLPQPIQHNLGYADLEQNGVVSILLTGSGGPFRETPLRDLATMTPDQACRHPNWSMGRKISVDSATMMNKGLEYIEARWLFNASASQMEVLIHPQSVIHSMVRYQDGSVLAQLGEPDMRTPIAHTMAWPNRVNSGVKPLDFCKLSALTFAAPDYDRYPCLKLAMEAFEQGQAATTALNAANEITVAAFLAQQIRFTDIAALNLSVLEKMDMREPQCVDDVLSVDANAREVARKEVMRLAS

[2] = Half life in plasma; format: ADME, cell-free

CC(=O)N(O)CC[C@H](c1ccccc1)P(=O)(O)O
EC50 (Plasmodium falciparum): 0.25 µM

O=P(O)(O)Cc1ccc(Cl)c(Cl)c1
IC50 [1]: > 100 µM

O=CN(O)CCCc1ccncc1
IC50 [1]: > 100 µM

O=CN(O)CCCP(=O)(O)O [FOSMIDOMYCIN]
half-life [2]: 1 h
EC50 (Plasmodium falciparum): 1.1 µM

O=CN(O)CCCc1ccc(Cl)c(Cl)c1
IC50 [1]: > 100 µM

O=P(O)(O)Cc1ccncc1
IC50 [1]: 7.1 µM

O=c1ccc(-c2ccccc2)cn1O [1-HYDROXY-5-PHENYLPYRIDIN-2(1H)-ONE]
IC50 [1]: 1.4 µM

CC(=O)N(O)CC[C@H](c1ccc(Cl)c(Cl)c1)P(=O)(O)O
EC50 (Plasmodium falciparum): 0.25 µM
IC50 [1]: 0.119 µM

CC(=O)N(O)CC[C@H](c1ccc(C)cc1)P(=O)(O)O
EC50 (Plasmodium falciparum): 0.25 µM
IC50 [1]: 0.396 µM

O=P(O)(O)Cc1cccnc1
IC50 [1]: 10 µM

COc1ccc([C@@H](CCN(O)C(C)=O)P(=O)(O)O)cc1
EC50 (Plasmodium falciparum): 0.25 µM
IC50 [1]: 0.459 µM

CC(=O)N(O)CC[C@H](c1ccc(Cl)cc1)P(=O)(O)O
EC50 (Plasmodium falciparum): 0.25 µM
IC50 [1]: 0.099 µM
